According to US5434150A, “Condensed 5-membered heterocyclic compounds, processes for preparing them and pharmaceutical preparations containing these compounds” (Dr. Karl Thomae GmbH, priority 1991, dated 1995):
Where a name gives a salt, the structure may show the parent alone. Read-outs that look alike come from different tables or passages of the source.

Assays:
Human Thrombocytes = assay: Fibrinogen binding to human thrombocytes (fibrinogen binding test)
Protocol: 1. Fibrinogen Binding to Human Thrombocytes The blood obtained by puncturing an antecubital vein is anticoagulated with trisodium citrate (final concentration: 13 mM) and centrifuged for 10 minutes at 170× g. The supernatant platelet-rich plasma is poured onto a Sepharose 2B column (Pharmacia) and eluted with a solution of 90 mM common salt, 14 mM trisodium citrate, 5 mM glucose and 50 mM tris(hydroxymethyl)aminomethane, adjusted to pH 7.4. The gel-filtered platelets (GFP) appearing before the plasma proteins are used for the binding experiments. 50 μl of a 60 mM calcium chloride solution, 50 μl of a 0.6 mM adenosine diphosphate solution, 100 μl of substance solution or solvent and 50 μl of fibrinogen solution (containing 3 μg of ^125 fibrinogen) are added to 750 μl of GFP and incubated for 20 minutes at ambient temperature. The non-specific binding is determined in the presence of 3 mg/ml of cold fibrinogen. 900 μl of the incubated material are carefully pipetted onto 250 μl of silicon oil (AP 38: AR 20, 1:2 v/v, Wacker Chemie) in Eppendorf tubes and centrifuged for 2 minutes at 10,000× g. The aqueous supernatant and some of the oil are drawn off, the tips of the tubes are cut off together with the platelet pellet and the quantity of bound fibrinogen is determined in a gamma counter. The concentration of substance which brings about a 50% inhibition in fibrinogen binding is determined from a series of concentrations and is given as the IC50 value. | *^125 I fibrogen was replaced by […] |e.

[1] = test system: platelet aggregation (platelet-rich plasma); assay: Antithrombotic activity: inhibition of collagen-induced platelet aggregation in platelet-rich plasma (Born and Cross); format: cell-based, human (healthy volunteers); conditions: 50% change in optical density, human platelet-rich plasma, 10 min preincubation
Protocol: 2. Antithrombotic Activity Method The thrombocyte aggregation is measured using the Born and Cross method (J. Physiol. 170:397 (1964)) in platelet-rich plasma taken from healthy volunteers. To inhibit coagulation the blood is mixed with 3.14% sodium citrate in a ratio by volume of 1:10. Collagen-induced aggregation The pattern of the decrease in optical density of the platelet suspension is photometrically measured and recorded after the addition of aggregation-triggering substance. The rate of aggregation is concluded from the angle of inclination of the density curve. The point on the curve where there is maximum light transmittance is used to calculate the optical density. The amount of collagen used is as small as possible but sufficient to produce an irreversible reaction curve. Standard commercial collagen produced by Hormonchemie of Munich is used. Before the addition of the collagen the plasma is incubated for 10 minutes with the substance at […]. From the measurements obtained an EC50 is determined graphically, indicating a 50% change in the optical density in terms of the inhibition of aggregation.

[2] = 125I fibrinogen, 50% inhibition of fibrinogen binding, gel-filtered human platelets, ADP, 20 min ambient temperature, read-out: Fibrinogen binding test IC50
[3] = *: 125I fibrinogen replaced by 3H-(3S,5S)-5-[(amidino-biphenylyl)-oxymethyl]-carboxymethyl-pyrrolidinone ligand, read-out: Fibrinogen binding test IC50 (values marked *)

## NCCCn1c(-c2ccc(CN)cc2)nc2cc(C(=O)NCCC(=O)O)ccc21 [Example 17, 2-(4-Aminomethyl-phenyl)-1-(3-amino-propyl)-5-[(2-carboxy-ethyl)-aminocarbonyl]-benzimidazole-hydrogen acetate]
Human Thrombocytes; [2]
  IC50: 1000 nM
[1]
  EC50: 3800 nM

## N=C(N)c1ccc(-c2nc3cc(C(=O)NCCC(=O)O)ccc3n2CCCCc2ccccc2)cc1 [17(7), 2-(4-amidino-phenyl)-5-[(2-carboxy-ethyl)-aminocarbonyl]-1-(4-phenyl-butyl)-benzimidazole-dihydrobromide]
Human Thrombocytes; [3]
  IC50: 5.4 nM
[1]
  EC50: 290 nM

## Cn1c(-c2ccc(C(=N)N)cc2)nc2c(=O)n(CCCCC(=O)O)c(=O)n(C)c21 [1(160), 8-(4-amidino-phenyl)-1-(4-carboxy-butyl)-3,9-dimethyl-xanthine]
Human Thrombocytes; [3]
  IC50: 7.5 nM
[1]
  EC50: 70 nM

## COC(=O)CCCCn1c(=O)c2nc(-c3ccc(C(=N)N)cc3)n(C)c2n(C)c1=O [3(141), 8-(4-amidino-phenyl)-3,9-dimethyl-1-(4-methoxycarbonyl-butyl)-xanthine hyd rochloride-hydroacetate]
Human Thrombocytes; [2]
  IC50: 140 nM
[1]
  EC50: 80 nM

## N=C(N)c1ccc(-c2nc3cc(C(=O)NCCC(=O)O)ccc3n2Cc2ccccc2)cc1 [1(62), 2-(4-amidino-phenyl)-1-benzyl-5-[(2-carboxy-ethyl)-aminocarbonyl]-benzimidazole-hydrochloride]
Human Thrombocytes; [3]
  IC50: 38 nM

## N=C(N)c1ccc(-c2nc3cc(C(=O)NCCC(=O)O)ccc3n2CCCN)cc1 [1(76), 2-(4-amidino-phenyl)-1-(3-amino-propyl)-5-[(2-carboxy-ethyl)-aminocarbonyl]-benzimidazole-diacetate]
[1]
  EC50: 1150 nM

## CN(CC(=O)O)c1cc2c(cc1C(=O)NCCC(=O)O)nc(-c1ccc(C(=N)N)cc1)n2C [1(140), 2-(4-amidino-phenyl)-5-[(2-carboxy-ethyl)-aminocarbonyl]-6-(N-carboxymethyl-methylamino)-1-methyl-benzimidazole]
Human Thrombocytes; [3]
  IC50: 220 nM
[1]
  EC50: 750 nM

## COC(=O)COc1ccc2[nH]c(COc3ccc(C(=N)N)cc3)nc2c1 [Example 3, 2-[(4-Amidino-phenyl)-oxymethyl]-5(6)-methoxycarbonyl-methoxy-benzimidazole-hydrochloride]
[1]
  EC50: 1200 nM

## COC(=O)CCNC(=O)c1cc2nc(-c3ccc(C(=N)N)cc3)n(C)c2cc1N(C)CC(=O)OC [3(124), 2-(4-amidino-phenyl)-5-[(2-methoxycarbonyl-ethyl)-aminocarbonyl]-6-(N-methoxycarbonylmethyl-methylamino)-1-methyl-benzimidazole-hydrochloride]
Human Thrombocytes; [3]
  IC50: 17000 nM
[1]
  EC50: 2800 nM

## COc1ccc(CCn2c(-c3ccc(C(=N)N)cc3)nc3cc(C(=O)NCCC(=O)OC(C)C)ccc32)cc1OC [Example 13, 2-(4-Amidino-phenyl)-1-[2-(3,4-dimethoxy-phenyl)-ethyl]-5-[(2-isopropyloxycarbonyl-ethyl)-aminocarbonyl]-benzimidazole-dihydrochloride]
Human Thrombocytes; [3]
  IC50: 1700 nM
[1]
  EC50: 5700 nM

## COC(=O)CCNC(=O)c1ccc2c(c1)nc(-c1ccc(C(=N)N)cc1)n2CCCC(=O)O [3(121), 2-(4-amidino-phenyl)-1-(3-carboxy-propyl)-5-[(2-methoxycarbonyl-ethyl)-aminocarbonyl]-benzimidazole]
Human Thrombocytes; [3]
  IC50: 15000 nM
[1]
  EC50: 13000 nM

## COC(=O)CCNC(=O)c1ccc2c(c1)nc(-c1ccc(C(=N)N)cc1)n2CCc1cc(Br)c(N)c(Br)c1 [3(125), 2-(4-amidino-phenyl)-1-[2-(4-amino-3f5-dibromo-phenyl)-ethyl]-5-[(2-methoxycarbonyl-ethyl)-aminocarbonyl]-benzimidazole]
Human Thrombocytes; [2]
  IC50: 2000 nM
[1]
  EC50: 250 nM

## COC(=O)CCNC(=O)c1ccc2c(c1)nc(-c1ccc(C(=N)N)cc1)n2CCC(c1ccccc1)c1ccccc1 [3(126), 2-(4-amidino-phenyl)-1-(3,3-diphenyl-propyl)-5-[(2-methoxycarbonyl-ethyl)-aminocarbonyl]-benzimidazole]
Human Thrombocytes; [2]
  IC50: 2200 nM
[1]
  EC50: 9900 nM

## Cn1c(-c2ccc(C(=N)N)cc2)nc2cc(C(=O)N3CCCC(C(=O)O)C3)ccc21 (stereo not shown) [17(10), 2-(4-amidino-phenyl)-5-[(3-carboxy-piperidino)-carbonyl]-1-methyl-benzimidazole-dihydrobromide]
Human Thrombocytes; [2]
  IC50: 26000 nM
[1]
  EC50: 27000 nM

## N=C(N)c1ccc(-c2nc3cc(C(=O)NCCC(=O)OC4CCCCC4)ccc3n2CCCCc2ccccc2)cc1 [13(3), 2-(4-amidino-phenyl)-5-[(2-cyclohexyloxycarbonyl-ethyl)-aminocarbonyl]-1-(4-phenyl-butyl)-benzimidazole dihydrochloride]
Human Thrombocytes; [3]
  IC50: 1400 nM
[1]
  EC50: 4300 nM

## COC(=O)CCNC(=O)c1cc2nc(-c3ccc(C(=N)N)cc3)n(C)c2cc1N(C)C(=O)OCC(C)C [3(130), 2-(4-amidino-phenyl)-6-(N-isobutyloxycarbonyl-N-methyl-amino)-5-[(2-methoxycarbonyl-ethyl)-aminocarbonyl]-1-methyl-benzimidazole]
Human Thrombocytes; [2]
  IC50: 14000 nM
[1]
  EC50: 160 nM

## COC(=O)CCNC(=O)c1ccc2c(c1)nc(-c1ccc(C(=N)N)cc1)n2Cc1ccccc1 [3(48), 2-(4-amidino-phenyl)-1-benzyl-5-[(2-methoxycarbonyl-ethyl)-aminocarbonyl]-benzimidazole-hydrochloride]
Human Thrombocytes; [3]
  IC50: 7000 nM
[1]
  EC50: 6400 nM

## CNc1cc2c(cc1C(=O)NCCC(=O)OC)nc(-c1ccc(C(=N)N)cc1)n2C [3(123), 2-(4-amidino-phenyl)-5-[(2-methoxycarbonyl-ethyl)-aminocarbonyl]-1-methyl-6-methylamino-benzimidazole-hydrochloride-hydrogen acetate]
Human Thrombocytes; [3]
  IC50: 25000 nM
[1]
  EC50: 12000 nM

## CCCCCCCCCCCCCCn1c(-c2ccc(C(=N)N)cc2)nc2cc(C(=O)NCCC(=O)OC)ccc21 [3(119), 2-(4-amidino-phenyl)-5-[(2-methoxycarbonyl-ethyl)-aminocarbonyl]-1-n-tetradecyl-benzimidazole]
Human Thrombocytes; [3]
  IC50: 4600 nM
[1]
  EC50: 39000 nM

## N=C(N)c1ccc(-c2nc3cc(C(=O)NCCC(=O)OCC4CCCCC4)ccc3n2CCCCc2ccccc2)cc1 [13(6), 2-(4-amidino-phenyl)-5-[(2-cyclohexylmethyloxy-carbonyl-ethyl)-aminocarbonyl]-1-(4-phenyl-butyl)-benzimidazole dihydrochloride]
Human Thrombocytes; [3]
  IC50: 130 nM
[1]
  EC50: 980 nM

## N=C(N)c1ccc(-c2nc3cc(C(=O)NCCC(=O)O)ccc3n2CCCN2CC[S+]([O-])CC2)cc1 [1(74), 2-(4-amidino-phenyl)-5-[(2-carboxy-ethyl)-aminocarbonyl]-1-[3-(S-oxido-thiomorpholino)-propyl]-benzimidazole]
Human Thrombocytes; [3]
  IC50: 120 nM
[1]
  EC50: 310 nM

## COc1ccc(CCn2c(-c3ccc(CN)cc3)nc3cc(C(=O)NCCC(=O)O)ccc32)cc1OC [17(5), 2-(4-aminomethyl-phenyl)-5-[(2-carboxy-ethyl)-aminocarbonyl]-1-[2-(3,4-dimethoxy-phenyl)-ethyl]-benzimidazole-dihydrobromide]
Human Thrombocytes; [3]
  IC50: 370 nM
[1]
  EC50: 2130 nM

## Cn1c(-c2ccc(C(=N)N)cc2)nc2cc(C(=O)NCCCC(=O)O)ccc21 [Example 1, 2-(4-Amidino-phenyl)-5-[(3-carboxy-propyl)-aminocarbonyl]-1-methyl-benzimidazole]
Human Thrombocytes; [2]
  IC50: 33000 nM
[1]
  EC50: 27000 nM

## N=C(N)c1ccc(-c2nc3cc(C(=O)NCCC(=O)O)ccc3n2CCN2CCNCC2)cc1 [Example 15, 2-(4-Amidino-phenyl)-5-[(2-carboxy-ethyl)-aminocarbonyl]-1-(2-piperazino-ethyl)-benzimidazole-hydrogen acetate]
Human Thrombocytes; [2]
  IC50: 28 nM
[1]
  EC50: 40 nM

## N=C(N)c1ccc(-c2nc3cc(C(=O)NCCC(=O)O)ccc3n2CCC(c2ccccc2)c2ccccc2)cc1 [17(9), 2-(4-amidino-phenyl)-5-[(2-carboxy-ethyl)-aminocarbonyl]-1-(3,3-diphenyl-propyl)-benzimidazole-dihydrobromide]
Human Thrombocytes; [3]
  IC50: 9.5 nM
[1]
  EC50: 1140 nM

## N=C(N)c1ccc(OCc2nc3cc(OCC(=O)O)ccc3[nH]2)cc1 [1(135), 2-[(4-amidino-phenyl)-oxymethyl]-5(6)-carboxymethoxy-benzimidazole]
Human Thrombocytes; [2]
  IC50: 800 nM
[1]
  EC50: 7600 nM
